In patent publication US20210333284A1, “METHODS AND MATERIALS FOR LARGE-SCALE ASSESSMENT OF LIGAND BINDING SELECTIVITY OF G-QUADRUPLEX RECOGNITION USING CUSTOM G4 MICROARRAYS” (Purdue Research Foundation, priority 2020, published 2021):

Experiments:
[1] = molecular target: various G4 structures (MYC, VEGF, human telomeric G4s); assay: Apparent dissociation constant by BMVC fluorescence; type: binding; settings: 20 nM BMVC, 25° C.
Description: FIG. 11 Apparent dissociation constant (Kd, app) of BMVC binding to various G4 structures determined by BMVC fluorescence. Conditions: 20 nM BMVC, 25° C., pH 7, 100 mM K+ (100 mM Na+ for wtTel22).

[2] = test system: MYC_14/23T G4; assay: G4 microarray competition with Cy5-PDS, MYC_14/23T; type: binding, human; settings: MYC_14/23T G4, 1 μM BMVC and 1 μM Cy5-PDS
Description: Custom G4 microarrays have been designed that contain a total of 19,249 G4 DNA sequences [31, the entirety of disclosure of which, including the supplemental information, is incorporated herein by reference]. The G4 microarrays were created by covalently attaching thousands of unique G4-forming DNA 60-mers to a glass surface. Pyridostatin (PDS) is a known G4-interactive compound. […] To test the binding selectivity of BMVC, competition experiments using custom G4 microarrays were performed. The addition of potassium-containing solution to G4-forming oligonucleotides induced G4 formation. […] After washing to remove the unbound Cy5-PDS and BMVC, the fluorescence intensities of Cy5-PDS bound to DNA oligonucleotides were detected using a fluorescence scanner. The binding selectivity of BMVC to different G4 structures was assessed by measuring the relative fluorescence intensity reduction of Cy5-PDS as BMVC concentration increased.
To determine the G4-binding selectivity of BMVC, the BMVC binding to known G4 structures was examined, including 7 well-studied MYC promoter G4 sequences, 15 other oncogene promoter G4 sequences, and 3 human telomeric G4 sequences (TABLE 4). BMVC competes with the binding of Cy5-PDS to most G4 sequences in a dose-dependent manner as indicated by reduced fluorescence intensities (FIG. 8a). […]

[3] = test system: MYC expression; settings: human breast cancer cell line; cited from earlier work
[4] = test system: parallel-stranded MYC_14/23T, MYC1234 and VEGF G4s; assay: 1D 1H NMR titration with parallel G4s; type: binding, human
Excerpt: (§1) The binding selectivity of BMVC to G4 structures and flanking sequences was confirmed by NMR titration experiments of BMVC to different G4 sequences, including parallel-stranded MYC_14/23T G4 and its 5′- and 3′-flanking variants, VEGF and MYC1234 G4s, basket-type human telomeric G4 (wtTel22 in Na+), and hybrid type human telomeric G4 (Tel26 in K+) (FIG. 12). BMVC binds best to the MYC_14/23T G4, as indicated by well-resolved imino proton peaks for BMVC complexes (FIG. 12, panel a). […] In contrast, the 3′-end binding of BMVC is sensitive to the mutations at the 3′-flanking sequence, with a clear preference for the 3′-flanking T. In addition, BMVC prefers at least two flanking bases for a specific binding.
(§2) G4 DNA oligonucleotides were synthesized using β-cyanoethylphosphoramidite solid-phase chemistry (Applied Biosystem Expedite 8909), as described previously. NMR experiments were performed on a Bruker AV-III-500-HD equipped with a BBFO Z-gradient cryoprobe. DNA samples were heated to 95° C. for 5 min, then cooled slowly for G4 formation. For the 1D 1H NMR experiments, samples contained 100-250 μM DNA in an appropriate buffer solution with 10% D2O for the lock. The titrations were performed by adding increasing amounts of the compounds to the DNA samples in solution.

[5] = test system: basket-type (wtTel22 in Na+) and hybrid-type (Tel26 in K+) human telomeric G4s; assay: 1D 1H NMR titration with telomeric G4s; type: binding
Excerpt: as §1, §2

apparent dissociation constant (Kd, app), ranking for MYC_14/23T G4 ([1]; pH 7, 100 mM K+): highest affinity | binding to parallel G4s (MYC, VEGF) vs human telomeric G4s by fluorescence ([1]; pH 7, 100 mM K+ (100 mM Na+ for wtTel22)): stronger than the human telomeric G4s | reduction of Cy5-PDS binding among all parallel G4s [2]: largest reduction | binding to MYC1234 and VEGF G4 by NMR titration ([4]; other parallel G4s): bind well | binding to MYC_14/23T G4 by NMR titration ([4]; well-resolved imino proton peaks, 95 mM K+, pH 7, 25° C.): binds best | binding to basket-type or hybrid-type human telomeric G4s by NMR titration [5]: did not show specific binding
Structure (SMILES): C[n+]1ccc(/C=C/c2ccc3[nH]c4ccc(/C=C/c5cc[n+](C)cc5)cc4c3c2)cc1.[I-].[I-] [BMVC, 3,6-Bis(1-methyl-4-vinylpyridinium) carbazole diiodide]
effect on MYC expression [3]: represses MYC expression
